Source: patent publication US20230027295A1, “FXIA INHIBITORS AND PREPARATION METHOD THEREFOR AND PHARMACEUTICAL USE THEREOF” (Shenzhen Salubris Pharmaceuticals Co., Ltd., priority 2019, published 2023)

Assays:
[1] = biological target: Human Factor XIa (Homo sapiens, UniProt P03951); test: Inhibition of human coagulation factor XIa by absorptiometry (substrate S-2366); assay type: biochemical; details: 37° C., 20 min incubation, absorbance 405 nm; read-out: hFXIa IC50
Description: Example 50: Detection of the Biological Activity of the Compounds of the Present Invention on the Inhibition of Human Coagulation Factor XIa by Absorptiometry
Buffer: 145 mM NaCl, 5 mM KCl, 1 mg/mL PEG 8000, 30 mM HEPES, pH 7.4
10 mM test compound dissolved in 100% DMSO was diluted with 100% DMSO to […]; 98 μL of FXIa enzyme solution (77.7 ng/mL) was added to each well of a 96-well plate, and 98 μL of buffer was added to the blank wells. 2 μL of compounds of different concentrations were added, and the blank and control wells were added with DMSO instead. They were mixed with a shaker, and incubated at 37° C. for 20 minutes.
Finally, 100 μL of 800 μM substrate was added to each well, and its absorbance was measured at 405 nm.

[2] = Rat pharmacokinetics; assay type: in vivo, SD rats; parameters: AUC: concentration or dose not given beside the values; details: for AUC / Cmax / Tmax / clearance / half-life / Vd: male, SD, plasma; for Vd: read-out: Vss
Source text: (§1) Example 53: Investigation of the Pharmacokinetic Characteristics of the Compounds of the Present Invention
(§2) SD rats: male, 180-250 g, purchased from Guangdong Medical Laboratory Animal Center. Cynomolgus monkey: male, 4-6 kg, purchased from Guangzhou Chunsheng Biological Research Institute Co., Ltd. Beagle dog: male, 8-12 kg, developed in Kanglong Chemical (Ningbo) New Drug Technology Co., Ltd.
(§3) Reagents: DMSO (dimethyl sulfoxide), PEG-400 (polyethylene glycol 400), normal brine, heparin, acetonitrile, formic acid, and propranolol (internal standard) are commercially available.
(§4) Instrumentation: Thermo Fisher Scientific LC-MS (U300 UPLC, TSQ […] ULTRA triple quadrupole mass spectrometer).
(§5) The compound was weighed and dissolved in DMSO-PEG-400-physiological brine (5:60:35, v/v/v) system. After the rats/monkeys were administered intravenously or by gavage, 200 μL of venous blood was collected at 5 min (not collected when administered by gavage), 15 min, 30 min, 1 h, 2 h, 4 h, 6 h, 8 h, and 24 h in heparinized EP tubes, centrifuged at 12000 rpm for 2 min, and the plasma was frozen at −80° C. for testing. A certain amount of the test substance was precisely weighed and dissolved in DMSO to 1 mg/mL, which was used as a stock solution. An appropriate amount of compound stock solution was accurately pipetted and diluted with acetonitrile to prepare a standard series of solutions. 20 μL of each of the above standard series solutions were accurately pipetted, added with 180 μL of blank plasma, vortexed and mixed to prepare plasma samples equivalent to plasma concentrations of 1, 3, 10, 30, 100, 300, 1000, 3000 and 5000 ng/mL. Two-sample analysis was performed for each concentration to establish a standard curve. 20 μL of plasma was taken out, added with 200 μL of internal standard propranolol (5 ng/mL) in acetonitrile, vortexed and mixed. It was centrifuged at 4000 rpm for 5 min, and the supernatant was collected for LC-MS analysis. LC-MS detection conditions were as follows:
(§6) Chromatographic column: Thermo Scientific […] GOLD C-18 UPLC column, 100*2.1 mm, 1.9 μm.
(§7) Mobile phase: water (0.1% formic acid)-acetonitrile for gradient elution according to the table below.
(§8) After blood drug concentrations being detected by LC-MS, WinNonlin 6.1 software was used to calculate pharmacokinetic parameters by non-compartmental model method.

[3] = system: human plasma; test: Anticoagulant effect on human plasma in vitro (APTT determination); assay type: biochemical; details: for aPTT EC1.5×: concentration giving APTT of 1.5× blank control; for aPTT EC2×: concentration giving APTT of 2× blank control
Description: Example 51: Determination of the Anticoagulant Effect of the Compounds of the Present Invention on Human Plasma In Vitro
Plasma: Human blood was collected in a vacuum blood collection tube containing 3.2% sodium citrate (volume ratio 1:9), centrifuged at 3000 rpm for 10 min at room temperature, and the plasma was collected, divided into EP tubes, and stored at −80° C.
Reagents: APTT assay kit (Activated partial thromboplastin time assay kit, mindray), calcium chloride solution.
Instrument: coagulation meter (mindray, C2000-A)
The frozen human plasma in aliquots was thawed at room temperature and mixed well. 10 mM test compound dissolved in 100% DMSO was diluted with 100% DMSO to 1500, 750, 375, 187.5, 93.75, 46.88, 23.44, 11.72 μM. 98 μL of human plasma was added to a 1.5 mL EP tube, then 2 μL of compounds of different concentrations were added, and 2 μL of 100% DMSO was added for the blank group. They were incubated under a water bath at 37° C. for 10 min, and the samples were placed in the corresponding position of the coagulation analyzer to conduct APTT determination of the compounds.
Curve fitting was performed with GraphPad Prism software, and EC1.5× and EC2× values were calculated respectively, i.e., the concentrations of the compounds corresponding to the APTT of 1.5× and 2× blank control group.

[4] = Cynomolgus monkey pharmacokinetics; assay type: in vivo; parameters: AUC: concentration or dose not given beside the values
Source text: as §1, §2, §3, §4, §5, §6, §7, §8

Sequence of Human Factor XIa (P03951 388-625 limits assumed): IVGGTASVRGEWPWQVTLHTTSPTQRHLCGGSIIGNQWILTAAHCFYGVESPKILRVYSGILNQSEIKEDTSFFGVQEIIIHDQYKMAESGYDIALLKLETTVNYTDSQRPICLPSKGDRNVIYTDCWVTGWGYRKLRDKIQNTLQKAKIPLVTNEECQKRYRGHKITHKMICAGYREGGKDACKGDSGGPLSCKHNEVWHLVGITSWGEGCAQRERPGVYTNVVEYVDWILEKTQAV
Sequence of Human Factor XIa (P03951 19-387 partner limits assumed): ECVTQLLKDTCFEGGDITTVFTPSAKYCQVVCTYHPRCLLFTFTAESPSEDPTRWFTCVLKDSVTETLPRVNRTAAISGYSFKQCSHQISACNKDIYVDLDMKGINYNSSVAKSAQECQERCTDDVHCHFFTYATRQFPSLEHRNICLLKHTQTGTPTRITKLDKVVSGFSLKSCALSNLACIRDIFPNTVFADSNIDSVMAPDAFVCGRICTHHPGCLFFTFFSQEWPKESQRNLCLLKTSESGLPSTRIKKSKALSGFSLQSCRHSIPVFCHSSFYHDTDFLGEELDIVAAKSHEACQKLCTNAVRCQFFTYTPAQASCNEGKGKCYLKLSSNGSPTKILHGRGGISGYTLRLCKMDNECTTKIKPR

IC50 [1] | F ([2]; ig) | AUC ([2]; iv) | Cmax ([2]; iv) | Tmax ([2]; iv) | clearance ([2]; iv) | half-life ([2]; iv) | Vd ([2]; iv) | Cmax ([2]; po, ig) | Tmax ([2]; po, ig) | AUC ([2]; po, ig) | half-life ([2]; po, ig) | SMILES | aPTT EC1.5× [3] | aPTT EC2× [3] | also measured
0.00152 µM | 0.1% | 599 ng·h/mL | 1840 ng/mL | 4.98 min | 29.1 mL/min/kg | 28 min | 0.471 L/kg | 3 ng/mL | 30 min | – | – | COc1nn([C@@H](Cc2ccccc2)C(=O)Nc2ccc3[nH]c(C(=O)O)cc3c2)c(=O)cc1-c1cc(Cl)ccc1C(C)=O [Example 15, (S)-5-(2-(4-(2-acetyl-5-chlorophenyl)-3-methoxy-6-oxopyridazin-1(6H)-yl)-3-phenylpropanamido)-1H-indol-2-formic acid] | 0.531 µM | 1.749 µM | –
0.0132 µM | 8.1% | 1090 ng·h/mL | 2530 ng/mL | 4.98 min | 16.6 mL/min/kg | 40.6 min | 0.444 L/kg | 160 ng/mL | 22.5 min | 481 ng·h/mL | 81 min | CCOc1nn([C@@H](Cc2ccccc2)C(=O)Nc2ccc(C(=O)O)cc2)c(=O)cc1-c1cc(Cl)ccc1C(C)=O [Example 16, (S)-4-(2-(4-(2-acetyl-5-chlorophenyl)-3-ethoxy-6-oxopyridazin-1(6H)-yl)-3-phenylpropanamido)benzoic acid] | 1.005 µM | 4.768 µM | –
0.0219 µM | 14.9% | 743 ng·h/mL | 1600 ng/mL | 5.99 min | 25.3 mL/min/kg | 29.5 min | 0.277 L/kg | 166 ng/mL | 90 min | 608 ng·h/mL | 139 min | COCCOc1nn([C@@H](Cc2ccccc2)C(=O)Nc2ccc(C(=O)O)cc2)c(=O)cc1-c1cc(Cl)ccc1C(C)=O [Example 21, (S)-4-(2-(4-(2-acetyl-5-chlorophenyl)-3-(2-methoxyethoxy)-6-oxopyridazin-1(6H)-yl)-3-phenylpropanamido)benzoic acid] | 0.777 µM | 3.848 µM | F ([4]; ig): 6.3%; AUC ([4]; male, plasma, iv): 455 ng·h/mL; Cmax ([4]; male, plasma, iv): 1010 ng/mL; Tmax ([4]; male, plasma, iv): 4.98 min; clearance ([4]; male, plasma, iv): 18.3 mL/min/kg; half-life ([4]; male, plasma, iv): 76.2 min; Vd ([4]; male, plasma, iv, read-out: Vss): 0.699 L/kg; AUC ([4]; male, plasma, po, ig): 357 ng·h/mL; Cmax ([4]; male, plasma, po, ig): 27.2 ng/mL; Tmax ([4]; male, plasma, po, ig): 90 min; half-life ([4]; male, plasma, po, ig): 684 min
0.023 µM | 3.9% | 457 ng·h/mL | 1270 ng/mL | 4.98 min | 36.5 mL/min/kg | 168 min | 1.14 L/kg | 43.7 ng/mL | 30 min | 93.5 ng·h/mL | 104 min | CC(=O)c1ccc(Cl)cc1-c1cc(=O)n([C@@H](Cc2ccccc2)C(=O)Nc2ccc(C(=O)O)cc2)nc1OC1COC1 [Example 24, (S)-4-(2-(4-(2-acetyl-5-chlorophenyl)-6-oxo-3-(oxetan-3-yloxy)-pyridazine-1(6H)-yl)-3-phenylpropanamido)benzoic acid] | 0.769 µM | 2.785 µM | –
0.0185 µM | 8.6% | 889 ng·h/mL | 1780 ng/mL | 4.98 min | 22.6 mL/min/kg | 48 min | 0.915 L/kg | 125 ng/mL | 37.5 min | 461 ng·h/mL | 158 min | CC(=O)c1ccc(Cl)cc1-c1cc(=O)n([C@@H](Cc2ccccc2)C(=O)Nc2ccc(C(=O)O)cc2)nc1OC(F)F [Example 25, (S)-4-(2-(4-(2-acetyl-5-chlorophenyl)-3-(difluoromethoxy)-6-oxopyridazin-1(6H)-yl)-3-phenylpropanamido)benzoic acid] | 1.782 µM | 9.452 µM | –
0.0199 µM | – | – | – | – | – | – | – | – | – | – | – | COc1nn(C(Cc2ccc(NC(=O)C3CC3)cc2)C(=O)Nc2ccc(C(=O)O)cc2)c(=O)cc1-c1cc(Cl)ccc1C(C)=O (stereo not shown) [Example 33, 4-(2-(4-(2-acetyl-5-chlorophenyl)-3-methoxy-6-oxopyridazin-1(6H)-yl)-3-(4-(cyclopropaneformamido)phenyl)propanamido)benzoic acid] | 1.527 µM | 7.691 µM | –
0.0165 µM | – | – | – | – | – | – | – | – | – | – | – | COc1nn([C@@H](Cc2ccccc2)C(=O)Nc2ccc(C(=O)O)cc2)c(=O)cc1-c1cc(Cl)ccc1C(=O)CO [Example 35, (S)-4-(2-(4-(5-chloro-2-(2-hydroxyacetyl)phenyl)-3-methoxy-6-oxopyridazin-1(6H)-yl)-3-phenylpropanamido)benzoic acid] | 1.271 µM | 5.987 µM | –
0.0116 µM | – | – | – | – | – | – | – | – | – | – | – | COc1nn([C@@H](Cc2ccccc2)C(=O)Nc2ccc(C(=O)O)cc2)c(=O)cc1-c1cc(Cl)ccc1C(=O)C(F)F [Example 36, (S)-4-(2-(4-(5-chloro-2-(2,2-difluoroacetyl)phenyl)-3-methoxy-6-oxopyridazine-1(6H)-yl)-3-phenylpropanamido)benzoic acid] | 1.348 µM | 6.562 µM | –
0.0164 µM | – | – | – | – | – | – | – | – | – | – | – | COc1nn(C(Cc2ccc(NC(=O)C3CCC3)cc2)C(=O)Nc2ccc(C(=O)O)cc2)c(=O)cc1-c1cc(Cl)ccc1C(C)=O (stereo not shown) [Example 39, 4-(2-(4-(2-acetyl-5-chlorophenyl)-3-methoxy-6-oxopyridazin-1(6H)-yl)-3-(4-(cyclobutaneformamido)phenyl)propanamido)benzoic acid] | 1.638 µM | 6.859 µM | –
0.0139 µM | – | – | – | – | – | – | – | – | – | – | – | COc1nn(C(Cc2ccc(NC(=O)C3CCCC3)cc2)C(=O)Nc2ccc(C(=O)O)cc2)c(=O)cc1-c1cc(Cl)ccc1C(C)=O (stereo not shown) [Example 40, 4-(2-(4-(2-acetyl-5-chlorophenyl)-3-methoxy-6-oxopyridazin-1(6H)-yl)-3-(4-(cyclopentaneformamido)phenyl)propanamido)benzoic acid] | 2.636 µM | 14.94 µM | –
